This is an account of results in patent US20250243189A1, “HERBICIDAL IMIDAZOLE-CONTAINING COMPOUNDS” (SYNGENTA CROP PROTECTION AG, priority 2022, published 2025).

Common to all, as to format: in vivo
Common to all, as to settings: 250 g/ha, evaluated after 13 days, five-point scale

The test system of test [1] is Echinochloa crus-galli (ECHCG). Briefly: Pre-emergence herbicidal glasshouse test. On the procedure:
(§1) Seeds of a variety of test species are sown in standard soil in pots Amaranthus retoflexus (AMARE), Echinochloa crus-galli (ECHCG), Setaria faberi (SETFA)). After cultivation for one day (pre-emergence) or after 8 days cultivation (post-emergence) under controlled conditions in a glasshouse (at 24/16° C., day/night; 14 hours light; 65% humidity), the plants are sprayed with an aqueous spray solution derived from the formulation of the technical active ingredient in acetone/water (50:50) solution containing 0.5% Tween 20 (polyoxyethelyene sorbitan monolaurate, CAS RN 9005-64-5). Compounds are applied at 250 g/ha unless otherwise stated. The test plants are then grown in a glasshouse under controlled conditions in a glasshouse (at 24/16° C., day/night; 14 hours light; 65% humidity) and watered twice daily. After 13 days for pre and post-emergence, the test is evaluated for the percentage damage caused to the plant. The biological activities are shown in the following table on a five-point scale (5=81-100%; 4=61-80%; 3=41-60%; 2=21-40%; 1=0-20%).

In test [2] the test system is Setaria faberi (SETFA). Briefly: Pre-emergence herbicidal glasshouse test. On the procedure:
as §1

In test [3] the test system is Amaranthus retoflexus (AMARE). Briefly: Pre-emergence herbicidal glasshouse test. How it is done:
as §1

The subject of test [4] is AMAPA. The test is described as follows: Pre-emergence herbicidal glasshouse test. On the procedure: [Worded in the source for another organism; this organism is reported under the same test.] as §1
Test [5] relates to IPOHE. The test is described as follows: Pre-emergence herbicidal glasshouse test. How it is done:
as §1

Test [6] deals with Echinochloa crus-galli (ECHCG). The test is described as follows: Post-emergence herbicidal glasshouse test. On the procedure:
as §1

In test [7] the test system is Setaria faberi (SETFA). The test is described as follows: Post-emergence herbicidal glasshouse test. How it is done: as §1
Test [8] deals with Amaranthus retoflexus (AMARE). Briefly: Post-emergence herbicidal glasshouse test. On the procedure: as §1
Test [9] deals with AMAPA. Briefly: Post-emergence herbicidal glasshouse test. On the procedure:
[Worded in the source for another organism; this organism is reported under the same test.] as §1

The subject of test [10] is IPOHE. Briefly: Post-emergence herbicidal glasshouse test. How it is done:
as §1

In the case of `Cc1sccc1-c1nc(C(F)(F)F)cn1Cc1ncc(Cl)cn1` [Compound 1.035], the “percentage damage caused to the plant, ECHCG” value in test [1] and in test [6] was 5 (5=81-100%) each time. The “percentage damage caused to the plant, SETFA” value in [2] and in [7] was 5 (5=81-100%) each time. The “percentage damage caused to the plant, AMARE” value in test [3] and in test [8] was 5 (5=81-100%) each time. Besides, the “percentage damage caused to the plant, AMAPA” value is 5 (5=81-100%) in test [4] and 4 (4=61-80%) in [9]. The “percentage damage caused to the plant, IPOHE” value in test [5] and in test [10] was 4 (4=61-80%) throughout.

Take `Cn1nccc1-c1nc(C(F)(F)F)cn1Cc1ncc(Cl)cn1` [Compound 1.005]: the “percentage damage caused to the plant, ECHCG” value in [1] and in test [6] was 5 (5=81-100%) in each case. Further, the “percentage damage caused to the plant, SETFA” value in [2] and in test [7] was 5 (5=81-100%) in each case. In addition, the “percentage damage caused to the plant, AMARE” value in [3] and in test [8] was 5 (5=81-100%) throughout. The “percentage damage caused to the plant, AMAPA” value in test [4] and in test [9] was 5 (5=81-100%) each time. The figures for the “percentage damage caused to the plant, IPOHE” value in [5] and in test [10] were 5 (5=81-100%) and 4 (4=61-80%), respectively.

For the molecule `Cc1csc(-c2nc(C(F)(F)F)cn2Cc2ncc(Cl)cn2)c1` [Compound 1.029], the figures for the “percentage damage caused to the plant, ECHCG” value in test [1] and in test [6] were 5 (5=81-100%) and 4 (4=61-80%), respectively. Also, the “percentage damage caused to the plant, SETFA” value in [2] was 5 (5=81-100%); in test [7], 4 (4=61-80%). The “percentage damage caused to the plant, AMARE” value in [3] and in test [8] was 5 (5=81-100%) in each case. For the same molecule, the “percentage damage caused to the plant, AMAPA” value in [4] and in test [9] was 5 (5=81-100%) each time. Besides, the “percentage damage caused to the plant, IPOHE” value is recorded as 1 (1=0-20%) in [5] and 2 (2=21-40%) in test [10].

On to `FC(F)(F)c1cn(Cc2ncc(Cl)cn2)c(-c2cc(Cl)sc2Cl)n1` [Compound 1.037], for which the results for the “percentage damage caused to the plant, ECHCG” value in test [1] and in test [6] were 4 (4=61-80%) and 3 (3=41-60%), respectively. Also, the results for the “percentage damage caused to the plant, SETFA” value in [2] and in test [7] were 4 (4=61-80%) and 3 (3=41-60%), respectively. The “percentage damage caused to the plant, AMARE” value in test [3] was 5 (5=81-100%); in [8], 4 (4=61-80%). Further, the figures for the “percentage damage caused to the plant, AMAPA” value in test [4] and in test [9] were 5 (5=81-100%) and 3 (3=41-60%), respectively. The “percentage damage caused to the plant, IPOHE” value is given as 5 (5=81-100%) in test [5] and 3 (3=41-60%) in test [10].

In the case of `FC(F)(F)c1cn(Cc2ncc(Cl)cn2)c(-c2cccs2)n1` [Compound 1.034], the “percentage damage caused to the plant, ECHCG” value in [1] and in [6] was 2 (2=21-40%) in each case. Moreover, the “percentage damage caused to the plant, SETFA” value in test [2] and in test [7] was 2 (2=21-40%) throughout. The “percentage damage caused to the plant, AMARE” value in test [3] was 5 (5=81-100%); in [8], 4 (4=61-80%). The “percentage damage caused to the plant, AMAPA” value in test [4] is given as 5 (5=81-100%); in test [9], 4 (4=61-80%). In addition, the “percentage damage caused to the plant, IPOHE” value in test [5] was 2 (2=21-40%); in test [10], 4 (4=61-80%).

`FC(F)(F)c1cn(Cc2ncc(Cl)cn2)c(-c2cnc(Cl)s2)n1` [Compound 1.008]: the “percentage damage caused to the plant, ECHCG” value in [1] and in [6] was 5 (5=81-100%) throughout. The “percentage damage caused to the plant, SETFA” value in [2] and in test [7] was 5 (5=81-100%) throughout. For the same molecule, the “percentage damage caused to the plant, AMARE” value in test [3] and in test [8] was 5 (5=81-100%) throughout. Further, the “percentage damage caused to the plant, AMAPA” value in test [4] and in test [9] was 5 (5=81-100%) throughout. The “percentage damage caused to the plant, IPOHE” value in [5] is 5 (5=81-100%); in test [10] it was 4 (4=61-80%).

`Cc1cc(-c2nc(C(F)(F)F)cn2Cc2ncc(Cl)cn2)n(C)n1` [Compound 1.024]: the “percentage damage caused to the plant, ECHCG” value in test [1] and in test [6] was 5 (5=81-100%) in each case. For the same molecule, the “percentage damage caused to the plant, SETFA” value in test [2] and in test [7] was 5 (5=81-100%) each time. Also, the “percentage damage caused to the plant, AMARE” value in [3] and in test [8] was 5 (5=81-100%) in each case. In addition, the “percentage damage caused to the plant, AMAPA” value in [4] and in test [9] was 5 (5=81-100%) in each case. For the same molecule, the “percentage damage caused to the plant, IPOHE” value in [5] and in [10] was 5 (5=81-100%) throughout.

As for `FC(F)(F)c1cn(Cc2ncc(Cl)cn2)c(-c2cc(Cl)c(Cl)s2)n1` [Compound 1.070], the “percentage damage caused to the plant, ECHCG” value in test [1] and in test [6] was 5 (5=81-100%) throughout. In addition, the “percentage damage caused to the plant, SETFA” value in [2] and in test [7] was 5 (5=81-100%) throughout. Also, the “percentage damage caused to the plant, AMARE” value in [3] and in [8] was 5 (5=81-100%) each time. Also, the “percentage damage caused to the plant, AMAPA” value in test [4] and in test [9] was 5 (5=81-100%) throughout. The “percentage damage caused to the plant, IPOHE” value in test [5] is 3 (3=41-60%); in test [10], 4 (4=61-80%).

For `Cn1ccnc1-c1nc(C(F)(F)F)cn1Cc1ncc(Cl)cn1` [Compound 1.006], the “percentage damage caused to the plant, ECHCG” value in test [1] and in test [6] was 1 (1=0-20%) each time. Further, the “percentage damage caused to the plant, SETFA” value in [2] and in [7] was 1 (1=0-20%) in each case. The “percentage damage caused to the plant, AMARE” value in test [3] and in test [8] was 1 (1=0-20%) in each case. Moreover, the “percentage damage caused to the plant, AMAPA” value in test [4] and in [9] was 1 (1=0-20%) throughout. Besides, the “percentage damage caused to the plant, IPOHE” value in [5] and in test [10] was 1 (1=0-20%) in each case.

As for `CS(=O)(=O)c1ccc(-c2nc(C(F)(F)F)cn2Cc2ncc(Cl)cn2)s1` [Compound 1.003], the “percentage damage caused to the plant, ECHCG” value in [1] and in [6] was 5 (5=81-100%) in each case. Besides, the “percentage damage caused to the plant, AMARE” value was 5 (5=81-100%) in [3] and 4 (4=61-80%) in test [8]. The “percentage damage caused to the plant, AMAPA” value in test [4] is reported as 5 (5=81-100%); in test [9], 4 (4=61-80%). Moreover, the “percentage damage caused to the plant, IPOHE” value in test [5] is reported as 5 (5=81-100%); in test [10], 4 (4=61-80%).
